This is an account of results in patent US20260078122A1, “INDAZOLE COMPOUNDS AS PKMYT1 KINASE INHIBITORS” (Hoffmann-La Roche Inc., priority 2023, published 2026).

One may read the IC50 as the point on the concentration scale where inhibition reaches its midpoint.

A short description of data set [1]: Human hepatocyte stability assay. Type of data set: in vitro ADME. Particulars: 1 μM compound, 1*10^6 cells/mL, 2-120 min.
The target in data set [2] is T1, recombinant human Myt1 (full length PKMYT1) (Homo sapiens, UniProt Q99640).
T1 sequence (Q99640 1-499): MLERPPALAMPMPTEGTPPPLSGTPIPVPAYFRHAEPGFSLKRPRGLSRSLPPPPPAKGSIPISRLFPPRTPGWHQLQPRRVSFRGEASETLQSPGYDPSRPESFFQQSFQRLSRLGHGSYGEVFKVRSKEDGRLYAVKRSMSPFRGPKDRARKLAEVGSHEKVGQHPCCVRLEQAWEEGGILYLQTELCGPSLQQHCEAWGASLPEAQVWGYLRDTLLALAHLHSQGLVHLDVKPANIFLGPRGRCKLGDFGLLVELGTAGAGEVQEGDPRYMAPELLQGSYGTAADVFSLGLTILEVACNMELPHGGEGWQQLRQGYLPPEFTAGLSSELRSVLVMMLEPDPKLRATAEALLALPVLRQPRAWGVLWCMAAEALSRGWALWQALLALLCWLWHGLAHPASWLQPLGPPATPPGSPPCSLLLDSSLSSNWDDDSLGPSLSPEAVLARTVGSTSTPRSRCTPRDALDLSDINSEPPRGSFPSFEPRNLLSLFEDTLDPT
As to the kind of experiment: ADP-Glo assay (Myt1 kinase activity).

Data set [3] is described as follows: Human microsome stability assay. Conditions: 1 μM compound, 0.5 mg/mL liver microsomal protein, 1 mM NADPH, 37° C., 0-30 minutes. On the technique in general: Liver microsomes are vesicles of endoplasmic reticulum, rich in cytochrome P450 enzymes.

Turning to `Nc1c(-c2ccc(F)c3[nH]ncc23)c2ncc(Cl)cc2[nH]c1=O` [Example 001, 3-Amino-7-chloro-4-(7-fluoro-1H-indazol-4-yl)-1H-1,5-naphthyridin-2-one], the “Clearance of Human hepatocyte (μL/min/10^6 cell)” value (shortened to “Clearance of Human hepatocyte”) in data set [1] is recorded as 2.1 μL/min/10^6 cell.

Turning to `Cc1cnc2c(-c3ccc(F)c4[nH]ncc34)c(N)c(=O)[nH]c2c1` [Example 002, 3-Amino-4-(7-fluoro-1H-indazol-4-y1)-7-methyl-1H-1,5-naphthyridin-2-one], the “Clearance of Human hepatocyte” value in data set [1] came to 1.3 μL/min/10^6 cell. On the same count and under the same terms, then `Cc1cc2[nH]c(=O)c(N)c(-c3ccc(F)c4[nH]ncc34)c2nc1C` [Example 017, 3-Amino-4-(7-fluoro-1H-indazol-4-yl)-6,7-dimethyl-1H-1,5-naphthyridin-2-one], with 1.6 μL/min/10^6 cell.

In the case of `Cc1cnc2c(-c3ccc(F)c4[nH]ncc34)c(N)c(=O)[nH]c2c1C` [Example 054, 3-Amino-4-(7-fluoro-1H-indazol-4-yl)-7,8-dimethyl-1H-1,5-naphthyridin-2-one], the “Clearance of Human hepatocyte” value in data set [1] is given as less than 1 μL/min/10^6 cell. For the compound `Cc1cc2[nH]c(=O)c(N)c(-c3ccc(F)c4[nH]ncc34)c2nc1C#CC(C)(C)O` [Example 070, 3-Amino-4-(7-fluoro-1H-indazol-4-yl)-6-(3-hydroxy-3-methyl-but-1-ynyl)-7-methyl-1H-1,5-naphthyridin-2-one], the “Clearance of Human hepatocyte” value in data set [1] was found to be 1.4 μL/min/10^6 cell.

With `Cc1c(Cl)cnc2c(-c3ccc(F)c4[nH]ncc34)c(N)c(=O)[nH]c12` [Example 099, 3-Amino-7-chloro-4-(7-fluoro-1H-indazol-4-yl)-8-methyl-1H-1,5-naphthyridin-2-one], in data set [1], the “Clearance of Human hepatocyte” value is on record as less than 1 μL/min/10^6 cell. The IC50 in data set [2] is less than 10 nM. Besides, the “Clearance of Human microsome” value in data set [3] stood at 6.15 mL/min/kg. `Cc1c(C2CC2)cnc2c(-c3ccc(F)c4[nH]ncc34)c(N)c(=O)[nH]c12` [Example 100, 3-Amino-7-cyclopropyl-4-(7-fluoro-1H-indazol-4-yl)-8-methyl-1H-1,5-naphthyridin-2-one]: the “Clearance of Human hepatocyte” value in data set [1] was less than 1 μL/min/10^6 cell. Still for that read-out and setting: to `[2H]C([2H])([2H])c1cnc2c(-c3ccc(F)c4[nH]ncc34)c(N)c(=O)[nH]c2c1C` [Example 101, 3-Amino-4-(7-fluoro-1H-indazol-4-yl)-8-methyl-7-(trideuteriomethyl)-1H-1,5-naphthyridin-2-one] belongs less than 1 μL/min/10^6 cell.

`Cc1c(CC(F)(F)F)cnc2c(-c3ccc(F)c4[nH]ncc34)c(N)c(=O)[nH]c12` [Example 133, 3-Amino-4-(7-fluoro-1H-indazol-4-yl)-8-methyl-7-(2,2,2-trifluoroethyl)-1H-1,5-naphthyridin-2-one]: the “Clearance of Human hepatocyte” value in data set [1] was 1.7 μL/min/10^6 cell. Further, the IC50 in data set [2] is less than 10 nM.

Regarding `Nc1c(-c2ccc(F)c3[nH]ncc23)c2c(Cl)nc(C3CC3)cc2[nH]c1=O` [Example 163, 3-Amino-5-chloro-7-cyclopropyl-4-(7-fluoro-1H-indazol-4-yl)-1H-1,6-naphthyridin-2-one], the “Clearance of Human hepatocyte” value in data set [1] is on record as less than 1 μL/min/10^6 cell. Moreover, the IC50 in data set [2] is less than 10 nM. Turning to `Cc1ncc(OC(C)C)c2c(-c3ccc(F)c4[nH]ncc34)c(N)c(=O)[nH]c12` [Example 182, 3-Amino-4-(7-fluoro-1H-indazol-4-yl)-5-isopropoxy-8-methyl-1H-1,7-naphthyridin-2-one], the IC50 in data set [2] worked out at 14.7 nM. Further, the “Clearance of Human microsome” value in data set [3] is 6.20 mL/min/kg. In the case of `Cc1ncc(OC(F)F)c2c(-c3ccc(F)c4[nH]ncc34)c(N)c(=O)[nH]c12` [Example 185, 3-Amino-5-(difluoromethoxy)-4-(7-fluoro-1H-indazol-4-yl)-8-methyl-1H-1,7-naphthyridin-2-one], in data set [2], the IC50 amounted to 11.4 nM. Moreover, the “Clearance of Human microsome” value in data set [3] is on record as 6.15 mL/min/kg.
